Source: ChEMBL document CHEMBL3390848, “Affinity selection and sequence-activity relationships of HIV-1 membrane fusion inhibitors directed at the drug-resistant variants” (Medchemcomm, 2010)
Residues, ends and D or L forms follow the SMILES beside them.

Legend:
[1] = system: Human immunodeficiency virus 1; assay: Binding affinity to HIV1 His-tagged N-terminal heptad repeat of envelope glycoprotein gp41 assessed as recovery of N36-drug complex after 2 hrs by LC-MS analysis; design: concentration or dose not given beside the values
[2] = system: Human immunodeficiency virus 1; assay: Antiviral activity against HIV1 NL4-3 harboring gp41 D36G mutant infected in human HeLa cells expressing CD4-LTR-beta-gal assessed as inhibition of viral replication after 48 hrs by MAGI assay; format: functional, organism-based
[3] = system: Human immunodeficiency virus 1; assay: Thermal stability of HIV1 envelope glycoprotein gp41 His-tagged N-terminal heptad repeat N36-drug complex assessed as thermal unfolding transition state by measuring molar ellipticity at 4 to 90 degC by circular dichroic spectra analysis
[4] = system: Human immunodeficiency virus 1; assay: Thermal stability of HIV1 envelope glycoprotein gp41 His-tagged N-terminal heptad repeat N54-drug complex assessed as thermal unfolding transition state by measuring molar ellipticity at 4 to 90 degC by circular dichroic spectra analysis
[5] = system: Human immunodeficiency virus 1; assay: Binding affinity to HIV1 His-tagged N-terminal heptad repeat of envelope glycoprotein gp41 assessed as recovery of N54-drug complex after 2 hrs by LC-MS analysis; design: concentration or dose not given beside the values

| Compound | Activity [1] [%] | EC50 [2] [nM] | Tm [3] [°C] | Tm [4] [°C] | Activity [5] [%] |
| --- | --- | --- | --- | --- | --- |
| CC[C@H](C)[C@H](NC(=O)[C@H](CC(C)C)NC(=O)[C@H](CCC(=O)O)NC(=O)[C@H](CCC(=O)O)NC(=O)[C@@H](NC(=O)[C@H](CCCCN)NC(=O)[C@H](CCCCN)NC(=O)[C@@H](NC(=O)[C@H](Cc1ccc(O)cc1)NC(=O)[C@H](CCC(=O)O)NC(=O)[C@H](CCC(=O)O)NC(=O)[C@@H](NC(=O)[C@H](CCCCN)NC(=O)[C@H](CCCCN)NC(=O)[C@H](CC(=O)O)NC(=O)[C@H](Cc1c[nH]c2ccccc12)NC(=O)[C@H](CCC(=O)O)NC(=O)[C@H](CCC(=O)O)NC(=O)[C@H](Cc1c[nH]c2ccccc12)NC(C)=O)[C@@H](C)CC)[C@@H](C)O)[C@@H](C)CC)C(=O)N[C@@H](CCCCN)C(=O)N[C@@H](CCCCN)C(=O)N[C@@H](CO)C(=O)N[C@@H](CCC(=O)O)C(=O)N[C@@H](CCC(=O)O)C(=O)N[C@@H](C)C(=O)N[C@@H](CCC(N)=O)C(=O)N[C@@H](CCCCN)C(=O)N[C@@H](CCCCN)C(=O)N[C@@H](CC(N)=O)C(=O)N[C@@H](CCC(=O)O)C(=O)N[C@@H](CCC(=O)O)C(=O)N[C@@H](CCC(=O)O)C(=O)N[C@@H](CC(C)C)C(=O)N[C@@H](CCCCN)C(=O)N[C@@H](CCCCN)C(N)=O (Ac-WEEWDKKIEEYTKKIEELIKKSEEAQKKNEEELKK-NH2) | 6.6 | 1.6 | 76.1 | – | – |
| CC[C@H](C)[C@H](NC(=O)[C@H](CC(C)C)NC(=O)[C@H](CCC(=O)O)NC(=O)[C@H](CCC(=O)O)NC(=O)[C@@H](NC(=O)[C@H](CCCCN)NC(=O)[C@H](CCCCN)NC(=O)[C@@H](NC(=O)[C@H](Cc1ccc(O)cc1)NC(=O)[C@H](CCC(=O)O)NC(=O)[C@H](CCC(=O)O)NC(=O)[C@@H](NC(=O)[C@H](CCCCN)NC(=O)[C@H](CCCCN)NC(=O)[C@H](CC(=O)O)NC(=O)[C@H](Cc1c[nH]c2ccccc12)NC(=O)[C@H](CCC(=O)O)NC(=O)[C@H](CCC(=O)O)NC(=O)[C@H](Cc1c[nH]c2ccccc12)NC(C)=O)[C@@H](C)CC)[C@@H](C)O)[C@@H](C)CC)C(=O)N[C@@H](CCCCN)C(=O)N[C@@H](CCCCN)C(=O)N[C@@H](CO)C(=O)N[C@@H](CCC(=O)O)C(=O)N[C@@H](CCC(=O)O)C(=O)N[C@@H](CC(=O)O)C(=O)N[C@@H](CCC(N)=O)C(=O)N[C@@H](CCCCN)C(=O)N[C@@H](CCCCN)C(=O)N[C@@H](CC(N)=O)C(=O)N[C@@H](CCC(=O)O)C(=O)N[C@@H](CCC(=O)O)C(=O)N[C@@H](CCC(=O)O)C(=O)N[C@@H](CC(C)C)C(=O)N[C@@H](CCCCN)C(=O)N[C@@H](CCCCN)C(N)=O (Ac-WEEWDKKIEEYTKKIEELIKKSEEDQKKNEEELKK-NH2) | 4.5 | 2.9 | 75.1 | – | – |
| CC[C@H](C)[C@H](NC(=O)[C@H](CC(C)C)NC(=O)[C@H](CCC(=O)O)NC(=O)[C@H](CCC(=O)O)NC(=O)[C@@H](NC(=O)[C@H](CCCCN)NC(=O)[C@H](CCCCN)NC(=O)[C@@H](NC(=O)[C@H](Cc1ccc(O)cc1)NC(=O)[C@H](CCC(=O)O)NC(=O)[C@H](CCC(=O)O)NC(=O)[C@@H](NC(=O)[C@H](CCCCN)NC(=O)[C@H](CCCCN)NC(=O)[C@H](CC(=O)O)NC(=O)[C@H](Cc1c[nH]c2ccccc12)NC(=O)[C@H](CCC(=O)O)NC(=O)[C@H](CCC(=O)O)NC(=O)[C@H](Cc1c[nH]c2ccccc12)NC(C)=O)[C@@H](C)CC)[C@@H](C)O)[C@@H](C)CC)C(=O)N[C@@H](CCCCN)C(=O)N[C@@H](CCCCN)C(=O)N[C@@H](CO)C(=O)N[C@@H](CCC(=O)O)C(=O)N[C@@H](CCC(=O)O)C(=O)N[C@@H](CCC(=O)O)C(=O)N[C@@H](CCC(N)=O)C(=O)N[C@@H](CCCCN)C(=O)N[C@@H](CCCCN)C(=O)N[C@@H](CC(N)=O)C(=O)N[C@@H](CCC(=O)O)C(=O)N[C@@H](CCC(=O)O)C(=O)N[C@@H](CCC(=O)O)C(=O)N[C@@H](CC(C)C)C(=O)N[C@@H](CCCCN)C(=O)N[C@@H](CCCCN)C(N)=O (Ac-WEEWDKKIEEYTKKIEELIKKSEEEQKKNEEELKK-NH2) | 4.3 | 2.4 | 76.2 | – | – |
| CC[C@H](C)[C@H](NC(=O)[C@H](CC(C)C)NC(=O)[C@H](CCC(=O)O)NC(=O)[C@H](CCC(=O)O)NC(=O)[C@@H](NC(=O)[C@H](CCCCN)NC(=O)[C@H](CCCCN)NC(=O)[C@@H](NC(=O)[C@H](Cc1ccc(O)cc1)NC(=O)[C@H](CCC(=O)O)NC(=O)[C@H](CCC(=O)O)NC(=O)[C@@H](NC(=O)[C@H](CCCCN)NC(=O)[C@H](CCCCN)NC(=O)[C@H](CC(=O)O)NC(=O)[C@H](Cc1c[nH]c2ccccc12)NC(=O)[C@H](CCC(=O)O)NC(=O)[C@H](CCC(=O)O)NC(=O)[C@H](Cc1c[nH]c2ccccc12)NC(C)=O)[C@@H](C)CC)[C@@H](C)O)[C@@H](C)CC)C(=O)N[C@@H](CCCCN)C(=O)N[C@@H](CCCCN)C(=O)N[C@@H](CO)C(=O)N[C@@H](CCC(=O)O)C(=O)N[C@@H](CCC(=O)O)C(=O)N[C@@H](Cc1ccccc1)C(=O)N[C@@H](CCC(N)=O)C(=O)N[C@@H](CCCCN)C(=O)N[C@@H](CCCCN)C(=O)N[C@@H](CC(N)=O)C(=O)N[C@@H](CCC(=O)O)C(=O)N[C@@H](CCC(=O)O)C(=O)N[C@@H](CCC(=O)O)C(=O)N[C@@H](CC(C)C)C(=O)N[C@@H](CCCCN)C(=O)N[C@@H](CCCCN)C(N)=O (Ac-WEEWDKKIEEYTKKIEELIKKSEEFQKKNEEELKK-NH2) | 5.7 | 2.6 | 76.7 | – | – |
| CC[C@H](C)[C@H](NC(=O)[C@H](CC(C)C)NC(=O)[C@H](CCC(=O)O)NC(=O)[C@H](CCC(=O)O)NC(=O)[C@@H](NC(=O)[C@H](CCCCN)NC(=O)[C@H](CCCCN)NC(=O)[C@@H](NC(=O)[C@H](Cc1ccc(O)cc1)NC(=O)[C@H](CCC(=O)O)NC(=O)[C@H](CCC(=O)O)NC(=O)[C@@H](NC(=O)[C@H](CCCCN)NC(=O)[C@H](CCCCN)NC(=O)[C@H](CC(=O)O)NC(=O)[C@H](Cc1c[nH]c2ccccc12)NC(=O)[C@H](CCC(=O)O)NC(=O)[C@H](CCC(=O)O)NC(=O)[C@H](Cc1c[nH]c2ccccc12)NC(C)=O)[C@@H](C)CC)[C@@H](C)O)[C@@H](C)CC)C(=O)N[C@@H](CCCCN)C(=O)N[C@@H](CCCCN)C(=O)N[C@@H](CO)C(=O)N[C@@H](CCC(=O)O)C(=O)N[C@@H](CCC(=O)O)C(=O)NCC(=O)N[C@@H](CCC(N)=O)C(=O)N[C@@H](CCCCN)C(=O)N[C@@H](CCCCN)C(=O)N[C@@H](CC(N)=O)C(=O)N[C@@H](CCC(=O)O)C(=O)N[C@@H](CCC(=O)O)C(=O)N[C@@H](CCC(=O)O)C(=O)N[C@@H](CC(C)C)C(=O)N[C@@H](CCCCN)C(=O)N[C@@H](CCCCN)C(N)=O (Ac-WEEWDKKIEEYTKKIEELIKKSEEGQKKNEEELKK-NH2) | 3.8 | 2.3 | 71 | – | – |
| CC[C@H](C)[C@H](NC(=O)[C@H](CC(C)C)NC(=O)[C@H](CCC(=O)O)NC(=O)[C@H](CCC(=O)O)NC(=O)[C@@H](NC(=O)[C@H](CC(C)C)NC(=O)[C@H](CO)NC(=O)[C@@H](NC(=O)[C@H](Cc1ccc(O)cc1)NC(C)=O)[C@@H](C)O)[C@@H](C)CC)C(=O)N[C@@H](CCCCN)C(=O)N[C@@H](CCCCN)C(=O)N[C@H](C(=O)N[C@@H](CCC(=O)O)C(=O)N[C@@H](CCC(=O)O)C(=O)N[C@@H](CCC(N)=O)C(=O)N[C@@H](CCC(N)=O)C(=O)N[C@@H](CCCCN)C(=O)N[C@@H](CCCCN)C(=O)N[C@@H](CC(N)=O)C(=O)N[C@@H](CCC(=O)O)C(=O)N[C@@H](CCC(=O)O)C(=O)N[C@@H](CCC(=O)O)C(=O)N[C@@H](CC(C)C)C(=O)N[C@@H](CCCCN)C(=O)N[C@@H](CCCCN)C(=O)N[C@@H](CC(C)C)C(=O)N[C@@H](CCC(=O)O)C(=O)N[C@@H](CCC(=O)O)C(=O)N[C@@H](Cc1c[nH]c2ccccc12)C(=O)N[C@@H](C)C(=O)N[C@@H](CCCCN)C(=O)N[C@@H](CCCCN)C(=O)N[C@@H](Cc1c[nH]c2ccccc12)C(=O)N[C@@H](CC(N)=O)C(=O)N[C@@H](Cc1c[nH]c2ccccc12)C(=O)N[C@@H](Cc1ccccc1)C(N)=O)C(C)C (Ac-YTSLIEELIKKVEEQQKKNEEELKKLEEWAKKWNWF-NH2) | – | 0.3 | – | 76 | 9.4 |
| CC[C@H](C)[C@H](NC(=O)[C@H](CC(C)C)NC(=O)[C@H](CCC(=O)O)NC(=O)[C@H](CCC(=O)O)NC(=O)[C@@H](NC(=O)[C@H](CC(C)C)NC(=O)[C@H](CO)NC(=O)[C@@H](NC(=O)[C@H](Cc1ccc(O)cc1)NC(C)=O)[C@@H](C)O)[C@@H](C)CC)C(=O)N[C@@H](CCCCN)C(=O)N[C@@H](CCCCN)C(=O)N[C@@H](Cc1ccc(O)cc1)C(=O)N[C@@H](CCC(=O)O)C(=O)N[C@@H](CCC(=O)O)C(=O)N[C@@H](CCC(N)=O)C(=O)N[C@@H](CCC(N)=O)C(=O)N[C@@H](CCCCN)C(=O)N[C@@H](CCCCN)C(=O)N[C@@H](CC(N)=O)C(=O)N[C@@H](CCC(=O)O)C(=O)N[C@@H](CCC(=O)O)C(=O)N[C@@H](CCC(=O)O)C(=O)N[C@@H](CC(C)C)C(=O)N[C@@H](CCCCN)C(=O)N[C@@H](CCCCN)C(=O)N[C@@H](CC(C)C)C(=O)N[C@@H](CCC(=O)O)C(=O)N[C@@H](CCC(=O)O)C(=O)N[C@@H](Cc1c[nH]c2ccccc12)C(=O)N[C@@H](C)C(=O)N[C@@H](CCCCN)C(=O)N[C@@H](CCCCN)C(=O)N[C@@H](Cc1c[nH]c2ccccc12)C(=O)N[C@@H](CC(N)=O)C(=O)N[C@@H](Cc1c[nH]c2ccccc12)C(=O)N[C@@H](Cc1ccccc1)C(N)=O (Ac-YTSLIEELIKKYEEQQKKNEEELKKLEEWAKKWNWF-NH2) | – | 5 | – | 61.1 | 4.7 |
